PubChem BioAssay (NCI)
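Growth conditions: 96-well plates. Treatment: test compound, 48 hours, 5 concentrations. Analysis: linear interpolation between bracketing concentrations; unreached endpoints set to highest concentration. Abbreviation: GI50, concentration required for 50% inhibition of growth. At the TGI there is no net growth.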

Experiments:
Test in all cases: NCI anticancer screen, dose series, 48 h
[1] = test system: UACC-257 melanoma
[2] = test system: MCF7 breast
[3] = test system: CAKI-1 renal
[4] = test system: HOP-62 NSCLC
[5] = test system: NCI-H23 lung
[6] = test system: NCI/ADR-RES ovarian
[7] = test system: ACHN renal
[8] = test system: KM12 colon
[9] = test system: OVCAR-4 ovarian
[10] = test system: HCT-15 colon

## CCCCCCCCCCCCCCCC(N)c1ccccc1 (stereo not drawn)
[1]
  GI50: 1.78 µM
  TGI: 3.4 µM
[2]
  GI50: 1.62 µM
  TGI: 3.18 µM
[3]
  GI50: 1.53 µM
  TGI: 2.96 µM
[4]
  GI50: 1.23 µM
  TGI: 2.62 µM
[5]
  GI50: 1.74 µM
  TGI: 3.35 µM
[6]
  GI50: 1.85 µM
  TGI: 3.66 µM
[7]
  GI50: 1.79 µM
  TGI: 3.34 µM
[8]
  GI50: 1.77 µM
  TGI: 3.29 µM
[9]
  GI50: 1.67 µM
  TGI: 3.45 µM
[10]
  GI50: 1.67 µM
  TGI: 3.09 µM

## Nc1nc(N)c(-c2ccc(Cl)cc2)c(/C=C/c2ccc([N+](=O)[O-])cc2)n1
[1]
  GI50: 7.51 µM
  TGI: > 100 µM
[2]
  GI50: 3.16 µM
  TGI: > 100 µM
[3]
  GI50: 4.92 µM
  TGI: > 100 µM
[4]
  GI50: 11.9 µM
  TGI: 31.1 µM
[5]
  GI50: 13.3 µM
  TGI: > 100 µM
[6]
  GI50: 7.99 µM
  TGI: > 100 µM
[7]
  GI50: 3.85 µM
  TGI: > 100 µM
[8]
  GI50: 23.4 µM
  TGI: > 100 µM
[9]
  GI50: 4.54 µM
  TGI: > 100 µM
[10]
  GI50: 3.97 µM
  TGI: > 100 µM

## COc1cc(OC)c2c(c1Cl)O[C@]1(C2=O)C(OCc2ccccc2)=CC(=O)C[C@H]1C
[1]
  GI50: 1.76 µM
  TGI: 49.2 µM
[2]
  GI50: 0.395 µM
  TGI: 25.9 µM
[3]
  GI50: 0.656 µM
  TGI: 60.6 µM
[4]
  GI50: 1.36 µM
  TGI: 62.2 µM
[5]
  GI50: 1.02 µM
  TGI: 39.5 µM
[6]
  GI50: 0.584 µM
  TGI: 3.72 µM
[7]
  GI50: 0.785 µM
  TGI: > 100 µM
[8]
  GI50: 0.596 µM
  TGI: > 100 µM
[9]
  GI50: 7.16 µM
  TGI: 73.3 µM
[10]
  GI50: 0.487 µM
  TGI: > 100 µM

## CC(=O)N1c2ccc(-c3ccc(C(=O)O)cc3)cc2[C@H](Nc2ccc(Cl)cc2)C[C@@H]1C
[1]
  GI50: 0.366 µM
  TGI: 21.5 µM
[2]
  GI50: 0.0273 µM
  TGI: > 100 µM
[3]
  GI50: 0.0457 µM
  TGI: > 100 µM
[4]
  GI50: 0.0677 µM
  TGI: 22.4 µM
[5]
  GI50: 0.918 µM
  TGI: 44.3 µM
[6]
  GI50: 0.551 µM
  TGI: > 100 µM
[7]
  GI50: 0.41 µM
  TGI: 21.9 µM
[8]
  GI50: 0.924 µM
  TGI: 20.2 µM
[9]
  GI50: 0.686 µM
  TGI: > 100 µM
[10]
  GI50: 0.0613 µM
  TGI: 13.5 µM

## COc1ccc2c(c1)C(=O)c1c-2n(CCCNCCO)c(=O)c2cc([N+](=O)[O-])ccc12
[1]
  GI50: 0.0691 µM
  TGI: 1.96 µM
[2]
  GI50: < 0.01 µM
  TGI: 0.0264 µM
[3]
  GI50: < 0.01 µM
  TGI: 0.0602 µM
[4]
  GI50: < 0.01 µM
  TGI: 0.145 µM
[5]
  GI50: < 0.01 µM
  TGI: 0.0341 µM
[6]
  GI50: < 0.01 µM
  TGI: 1.68 µM
[7]
  GI50: < 0.01 µM
  TGI: < 0.034 µM
[8]
  GI50: 0.0255 µM
  TGI: 0.739 µM
[9]
  GI50: 0.0361 µM
  TGI: 1.19 µM
[10]
  GI50: < 0.0211 µM
  TGI: 1.19 µM

## O=C(N/N=C/c1cccc(O)c1)c1ccc(C(F)(F)F)nc1Nc1cccc(C(F)(F)F)c1
[1]
  GI50: 2.36 µM
  TGI: 8.44 µM
[2]
  GI50: 1.37 µM
  TGI: 4.08 µM
[3]
  GI50: 1.17 µM
  TGI: 3 µM
[4]
  GI50: 2.35 µM
  TGI: 6.95 µM
[5]
  GI50: 1.62 µM
  TGI: 5.07 µM
[6]
  GI50: 2.04 µM
  TGI: 5.93 µM
[7]
  GI50: 2.09 µM
  TGI: 6.35 µM
[8]
  GI50: 1.69 µM
  TGI: 5.22 µM
[9]
  GI50: 0.955 µM
  TGI: 22.8 µM
[10]
  GI50: 0.881 µM
  TGI: 10.1 µM

## O=C1C=C(OCC=C(Cl)Cl)C(=O)c2ccccc21
[1]
  GI50: 2.15 µM
  TGI: 11 µM
[2]
  GI50: 1.61 µM
  TGI: 3.81 µM
[3]
  GI50: 23.3 µM
  TGI: > 100 µM
[4]
  GI50: 54.9 µM
  TGI: > 100 µM
[5]
  GI50: 3.63 µM
  TGI: > 85 µM
[6]
  GI50: 3.94 µM
  TGI: > 51.7 µM
[7]
  GI50: 7.02 µM
  TGI: 99.7 µM
[8]
  GI50: 8.41 µM
  TGI: > 90.7 µM
[9]
  GI50: 1.61 µM
  TGI: 3 µM
[10]
  GI50: 7.05 µM
  TGI: > 100 µM

## CC(C)Cn1cnc2c(SCc3ccccn3)nc(N)nc21
[1]
  TGI: > 100 µM
[2]
  TGI: > 100 µM
[3]
  TGI: > 100 µM
[4]
  TGI: > 100 µM
[5]
  TGI: > 100 µM
[6]
  TGI: > 100 µM
[7]
  TGI: > 100 µM
[8]
  TGI: > 100 µM
[9]
  TGI: > 100 µM
[10]
  TGI: > 100 µM

## O=C1/C(=C/c2cccc(F)c2)CN(C(=O)C(Cl)Cl)C/C1=C\c1cccc(F)c1
[1]
  GI50: 0.606 µM
  TGI: 1.63 µM
[2]
  GI50: 0.0405 µM
  TGI: 0.241 µM
[3]
  GI50: 0.389 µM
  TGI: 1.44 µM
[4]
  GI50: 0.353 µM
  TGI: 1.19 µM
[5]
  GI50: 0.234 µM
  TGI: 0.69 µM
[6]
  GI50: 0.304 µM
  TGI: 1.49 µM
[7]
  GI50: 0.212 µM
  TGI: 0.517 µM
[8]
  GI50: 0.172 µM
  TGI: 0.476 µM
[9]
  GI50: 0.351 µM
  TGI: 1.38 µM
[10]
  GI50: 0.0855 µM
  TGI: 0.312 µM

## CN1CCN(Cc2ccc(NC(=O)c3cncc(C#Cc4ncc5ccccn45)c3)cc2C(F)(F)F)CC1
[1]
  GI50: 1.44 µM
  TGI: 4.57 µM
[2]
  GI50: 0.738 µM
  TGI: 3.07 µM
[3]
  GI50: 0.913 µM
  TGI: 3.99 µM
[4]
  GI50: 1.45 µM
  TGI: 4.77 µM
[5]
  GI50: 1.34 µM
  TGI: 5.75 µM
[6]
  GI50: 2.77 µM
  TGI: 16 µM
[7]
  GI50: 0.967 µM
  TGI: 3.8 µM
[8]
  GI50: 0.0112 µM
  TGI: 2.9 µM
[9]
  GI50: 0.531 µM
  TGI: 4.57 µM
[10]
  GI50: 1.2 µM
  TGI: 7.4 µM

## C=C1C(OCCO)OC2O[C@]3(C)CCC4[C@H](C)CCC1C24OO3 (stereo partly drawn)
[1]
  GI50: > 100 µM
  TGI: > 100 µM
[2]
  GI50: 17.4 µM
  TGI: > 100 µM
[3]
  GI50: 19 µM
  TGI: 40.5 µM
[4]
  GI50: 52.7 µM
  TGI: > 100 µM
[5]
  GI50: 7.46 µM
  TGI: 53.6 µM
[6]
  GI50: 36 µM
  TGI: > 100 µM
[7]
  GI50: 31.4 µM
  TGI: > 100 µM
[8]
  GI50: 6.04 µM
  TGI: > 100 µM
[9]
  GI50: 6.12 µM
  TGI: > 100 µM
[10]
  GI50: 3.88 µM
  TGI: > 100 µM

## CCC(=O)Oc1ccc(/C=N/NC(N)=S)nc1
[1]
  GI50: 21.5 µM
  TGI: > 100 µM
[2]
  GI50: 1.88 µM
  TGI: > 100 µM
[3]
  GI50: 4.97 µM
  TGI: > 100 µM
[4]
  GI50: 5.53 µM
  TGI: 82.3 µM
[5]
  GI50: 2.48 µM
  TGI: > 100 µM
[6]
  GI50: 3.27 µM
  TGI: > 100 µM
[7]
  GI50: 1.01 µM
  TGI: 21 µM
[8]
  GI50: 4.69 µM
  TGI: > 100 µM
[9]
  GI50: 3.92 µM
  TGI: > 100 µM
[10]
  GI50: 6.38 µM
  TGI: > 100 µM

## Nc1cc(N)c2nc(-c3ccccc3)c(Oc3ccc(Cl)c(Cl)c3)nc2c1
[1]
  GI50: 28.5 µM
  TGI: 87.2 µM
[2]
  GI50: 14.2 µM
  TGI: 70.6 µM
[3]
  GI50: 14.5 µM
  TGI: 35.9 µM
[4]
  GI50: 16.9 µM
  TGI: 37.9 µM
[5]
  GI50: 15.6 µM
  TGI: 39.9 µM
[6]
  GI50: 11.8 µM
  TGI: 36.1 µM
[8]
  GI50: 6.38 µM
  TGI: 39.8 µM
[9]
  GI50: 33 µM
  TGI: > 100 µM
[10]
  GI50: 20 µM
  TGI: > 100 µM
